Numbers after ± are expanded uncertainties.
Details: Liquid

vapor or sublimation pressure (468.15 K) [kPa] | vapor or sublimation pressure (483.15 K) [kPa] | vapor or sublimation pressure (498.15 K) [kPa] | vapor or sublimation pressure (513.15 K) [kPa] | SMILES
833 ± 26 | 1182 ± 37 | 1558 ± 48 | 2027 ± 63 | CCCCO [butan-1-ol]
1351 ± 31 | 1791 ± 39 | 2329 ± 49 | 2946 ± 60 | CCC(C)O (centres undefined) [butan-2-ol]
3286 ± 100 |  |  |  | CCCCC [pentane]
